Source: PubChem BioAssay (NCI)
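Where inhibition never reached the appropriate level, the endpoint shown equals the highest concentration tested. Otherwise, values were interpolated linearly from a five-concentration, 48-hour dose response in 96-well plates. GI50: concentration for 50% inhibition of growth. TGI marks complete inhibition of growth.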

Columns and labels:
Assay in all cases: NCI tumour cell line growth inhibition, 48 h
[1] = tested on: ACHN renal
[2] = tested on: BT-549 breast
[3] = tested on: EKVX NSCLC
[4] = tested on: HCC-2998 colon
[5] = tested on: K-562 leukemia
[6] = tested on: LOX IMVI melanoma
[7] = tested on: NCI-H226 lung
[8] = tested on: NCI-H460 lung
[9] = tested on: OVCAR-5 ovarian
[10] = tested on: RXF 393 renal
[11] = tested on: SK-MEL-28 melanoma
[12] = tested on: SR leukemia
[13] = tested on: U251 CNS
[14] = tested on: UACC-257 melanoma
[15] = tested on: OVCAR-4 ovarian

SMILES	TGI [1] [µM]	TGI [2] [µM]	TGI [3] [µM]	TGI [4] [µM]	TGI [5] [µM]	TGI [6] [µM]	TGI [7] [µM]	TGI [8] [µM]	TGI [9] [µM]	TGI [10] [µM]	TGI [11] [µM]	TGI [12] [µM]	TGI [13] [µM]	TGI [14] [µM]	TGI [15] [µM]	GI50 [5] [µM]
Nc1ccc(-c2ncc3cc(-c4cccc(-c5cc6cnc(-c7ccc(N)cc7)nc6c6ccccc56)c4)c4ccccc4c3n2)cc1	> 100	> 100	> 100	> 100	> 100	> 100	> 100	> 100	> 100	> 100	> 100	> 100	> 100	> 100	–	–
c1cc(-c2csc(-c3ccsc3)c2)cs1	> 100	> 100	> 100	> 100	> 100	> 100	83.2	> 100	> 100	> 100	> 100	> 100	> 100	> 100	> 100	–
C[C@@]12c3c4ccc(C=O)c3Oc3ccc(C=O)c(c31)Oc1c(C=O)ccc(c12)O4	> 100	> 100	> 100	> 100	> 100	> 100	> 100	> 100	> 100	–	> 100	> 100	> 100	> 100	> 100	–
Cc1c(/C=N/NC(=S)Nc2cccc(Cl)c2)c(=O)n(-c2ccccc2)n1C	37.5	75.1	33.3	> 100	31.5	> 100	33.9	21.8	–	29.5	> 100	> 100	44.6	> 100	40	–
COC(=O)/C=C/c1cnc2c(c1)oc(=O)n2CCc1ccccn1	> 100	> 100	> 100	> 100	> 100	> 100	> 100	> 100	> 100	–	> 100	> 100	> 100	> 100	> 100	–
Oc1ccc(Cl)cc1-c1[nH]c(=S)nc(-c2ccccc2)c1Cl	> 100	> 100	–	–	> 100	> 100	> 100	> 100	> 100	> 100	> 100	> 100	97.9	> 100	> 100	–
COc1ccc(N)c(C(O)CCNC(C)=O)c1 (stereo not drawn)	> 100	> 100	> 100	–	–	> 100	> 100	> 100	> 100	> 100	–	> 100	> 100	> 100	> 100	–
OC(CC(CC(O)(C(F)(F)Cl)C(F)(F)Cl)=NNc1ccccc1)(C(F)(F)Cl)C(F)(F)Cl	9.12	5.69	7.35	> 10	> 10	6.91	7.89	7.85	> 10	6.82	8.06	> 10	> 10	5.24	> 10	–
C/C(=N/NC(=O)c1ccncc1)c1ccc(NC(=O)C(=O)Nn2c(=S)[nH]c3ccccc3c2=O)cc1	> 100	> 100	> 100	> 100	–	> 100	> 100	> 100	> 100	> 100	> 100	> 100	> 100	> 100	> 100	–
CCOc1cc(-c2nc3ccccn3c2/N=C/c2cc([N+](=O)[O-])cc([N+](=O)[O-])c2O)ccc1O	> 100	> 100	> 100	–	> 100	> 100	–	> 100	> 100	> 100	> 100	> 100	> 100	> 100	> 100	–
CCOC(=O)N1CCN(c2c(C)nc(C)[nH]c2=O)CC1	> 100	> 100	> 100	> 100	> 100	> 100	> 100	> 100	–	> 100	> 100	> 100	> 100	> 100	> 100	–
Cn1c(NN)nc(-c2ccc([N+](=O)[O-])cc2)c(C#N)c1=O	24.7	25.5	44.1	26.5	> 100	35.2	28.7	36.4	42.9	28	25	43.8	30.8	29.1	30.8	–
CO[C@H]1[C@@H](O)[C@@H](C)O[C@@H](O[C@H]2CC[C@@]3(C)[C@H](CC[C@@H]4[C@@H]3CC[C@]3(C)[C@@H](C5=CC(=O)OC5)CC[C@]43O)C2)[C@@H]1O	0.0102	0.0236	0.0106	0.173	0.371	0.0455	0.135	0.00625	0.0932	0.00617	1.01	0.483	0.0415	0.0446	0.0322	0.00633
CC(C)(N)CO[C@H]1C[C@H]2CC[C@@]1(C)C2(C)C	95	60.5	> 100	5.23	43.3	35.1	49.8	36.3	41.3	28.2	27.4	81.1	36.4	34.7	74.5	–
COC(=O)c1ccccc1/C=C1/Cc2cccc(C)c2C1=O	> 100	> 100	> 100	> 100	> 100	> 100	> 100	> 100	> 100	> 100	> 100	> 100	> 100	> 100	> 100	–
O=C(O)CN=C(C(=NCC(=O)O)c1ccccc1)c1ccccc1	> 100	> 100	> 100	> 100	> 100	> 100	> 100	> 100	> 100	> 100	> 100	> 100	> 100	> 100	> 100	–
